The conditions of data set [1]: vs physostigmine or neostigmine; cited from earlier work.
Data set [2] concerns cholinesterase. The settings on record: cited from earlier work.
Data set [3] is described as follows: penetration through excized rodent (mice) skin, Franz' diffusion cells. The class given is in vitro ADME. Conditions: galanthamine, mice skin in vitro; addition of the acid as penetration enhancer. On the procedure:
150 g 52.8% (w/w) active substance-containing adhesive solution result which is spread on an aluminized and siliconized polyethylene sheet by means of a 350 μm coating knife. After the solvents have been removed by drying for 30 min. up to 60° C., the adhesive film is covered with a polyester sheet (15 μm). An area of 16 cm^2 is punched by means of a suitable cutting tool and the edges are separated off. The release relating to both this and the other examples is listed in the table; the list indicates both the controlled release into a physiological saline and through excized rodent skin.
The in-vitro-release was determined in a shaking water bath at 37° C. The acceptor medium was 100 ml physiological saline which was completely changed after 2, 4 and 8 hours. The concentration was determined by HPLC after 2, 4, and 8 and 24 hours. The penetration through mice skin was measured by means of Franz' diffusion cells.

`COc1ccc2c3c1OC1CC(O)C=CC31CCN(C)C2` (centres unmarked) [galanthamine, 4a,5,9,10,11,12-hexahydro-3-methoxy-11-methyl-6H-benzofuro (3a,3,2-ef) (2) benzazepin-6-ol]: in data set [1], the therapeutic range result is listed as “three to six times broader” and the “toxicity (in words)” value is “not as toxic as physostigmine or neostigmine”. Further, the “cholinesterase inhibition (in words)” value in data set [2] (pharmacological properties) is reported as “reversibly acting cholinesterase inhibitors”. The “cholinesterase inhibiting-action, relative to the dosage” value in data set [2] (vs physostigmine or neostigmine) is “slightly lower”. As for `CC(C)CCCCCCCCCCCCCCC(=O)O` [isostearic acid], the “penetration rate increase by addition of acid” value (shortened to “penetration rate increase”) in data set [3] is given as 1.5 factor. The same measure, in the same setting: the result for `CCCCCCCC(=O)O` [octanoic acid] reads 1.5 factor.

Consider `CCCCCCCC/C=C\CCCCCCCC(=O)O` [oleic acid], for which the “penetration rate increase” value in data set [3] was found to be 1.5 factor.

For `C=CCCCCCCCCC(=O)O` [undecenoic acid], in data set [3], the “penetration rate increase” value was 1.5 factor.

Values taken from US5700480A, “Transdermal therapeutic system comprising galanthamine as active component” (priority 1993, dated 1997).
